Reference: ChEMBL document CHEMBL1152722, “5-Aryl-4-(5-substituted-2,4-dihydroxyphenyl)-1,2,3-thiadiazoles as inhibitors of Hsp90 chaperone” (Bioorg Med Chem Lett, 2009)

How the values were obtained:
[1] = tested on: U2OS; assay: Growth inhibition of human U2OS cells after 72 hrs by XTT assay; format: functional
[2] = tested on: HeLa; assay: Growth inhibition of human HeLa cells after 72 hrs by XTT assay; format: functional
[3] = target: Heat shock protein HSP 90-alpha (Homo sapiens, UniProt P07900)
Description: Binding affinity to human full length Histidine6-tagged Hsp90alpha expressed in Escherichia coli BL21 DE3 by ITC

[4] = target: Heat shock protein HSP90 (Homo sapiens, UniProt P07900+P08238)
Description: Binding affinity to human Histidine6-tagged Hsp90alpha N-terminal domain expressed in Escherichia coli BL21 DE3 by ITC

| SMILES | GI50 [1] [µM] | GI50 [2] [µM] | Kd [3] [µM] | Kd [4] [µM] |
| --- | --- | --- | --- | --- |
| CCOc1ccc(-c2snnc2-c2cc(Cl)c(O)cc2O)cc1 | 6.9 | 3.6 |  |  |
| COc1ccc(-c2snnc2-c2cc(Cl)c(O)cc2O)cc1OC | 9.9 | 4.2 |  |  |
| Cc1ccc(-c2snnc2-c2cc(Cl)c(O)cc2O)cc1 | 7.1 | 3.3 |  |  |
| COc1ccc(-c2snnc2-c2cc(Cl)c(O)c(Cl)c2O)cc1 |  |  | > 20 | > 20 |
| COc1ccc(-c2snnc2-c2cc(Cl)c(O)cc2O)cc1 | 6 | 2.5 |  |  |
| CCOc1ccc(-c2snnc2-c2cc(CC)c(O)cc2O)cc1 | 0.69 | 0.7 |  |  |
| CCOc1ccc(-c2snnc2-c2cc(CC)c(O)c(Cl)c2O)cc1 | 28 | 19 | > 20 | > 20 |
